Key:
Leishmania amazonensis [1] = assay: Leishmanicidal activity against promastigote form of Leishmania amazonensis assessed as inhibition of parasite growth after 72 hrs by Neubauer's chamber method; assay type: functional, organism-based
[2] = (§1) Cytotoxicity against human PBMC assessed as cell viability after 48 hrs by MTT reduction assay; assay type: cell-based; details: PBMC (peripheral blood mononuclear cells)
[3] = Selectivity ratio of CC50 for human PBMC to IC50 for promastigote form of Leishmania amazonensis
PBMC = assay: as §1; assay type: cell-based; details: pbmc, 48 h
Leishmania amazonensis [4] = assay: Leishmanicidal activity against promastigote form of Leishmania amazonensis […] assessed as inhibition of parasite growth after 48 hrs by Neubauer's chamber method; assay type: functional, organism-based

SMILES | IC50 (Leishmania amazonensis [1]) [µM] | CC50 at 48 h [2] [µM] | Ratio CC50/IC50 [3] | CC50 (PBMC) | IC50 (Leishmania amazonensis [4]) [µM]
COc1ccc(C(=O)OCC2CCN(Cc3ccc4c(c3)OCO4)CC2)cc1OC | 43.2 | 1720 | 39.76 |  | 
CCNC(=O)OCC1CCN(Cc2ccc3c(c2)OCO3)CC1 | > 125 | 2430 | <19.48 |  | 
CCCCCCNC(=O)OCC1CCN(Cc2ccc3c(c2)OCO3)CC1 | 28.6 | 143 | 5 |  | 
O=C(OCC1CCN(Cc2ccc3c(c2)OCO3)CC1)c1ccc(Cl)cc1 | > 103 |  |  | Non-toxic | 
O=C(OCC1CCN(Cc2ccc3c(c2)OCO3)CC1)c1ccc([N+](=O)[O-])cc1 | 17.2 | 356 | 20.64 |  | 
O=C(/C=C/c1ccc2c(c1)OCO2)OCC1CCN(Cc2ccc3c(c2)OCO3)CC1 | > 94.5 | 950 | <10.06 |  | 
O=C(OCC1CCN(Cc2ccc3c(c2)OCO3)CC1)c1ccc(Br)cc1 | 38.3 | 208 | 5.43 |  | 
O=C(OCC1CCN(Cc2ccc3c(c2)OCO3)CC1)c1ccccc1 | 78.3 | 306 | 3.9 |  | 
O=C(OCC1CCN(Cc2ccc3c(c2)OCO3)CC1)c1ccc(F)cc1 | 57.4 | 420 | 7.33 |  | 
O=C(OCC1CCN(Cc2ccc3c(c2)OCO3)CC1)c1ccc2c(c1)OCO2 | 28.1 | 362 | 12.88 |  | 
O=C(/C=C/C=C/c1ccc2c(c1)OCO2)N1CCCCC1 [PIPERINE] |  |  |  |  | 14.5
